The values below are quoted from earlier work in publication PMC9851200, “Multiparameter phenotypic screening for endogenous TFEB and TFE3 translocation identifies novel chemical series modulating lysosome function” (Autophagy, 2022).

Parameters in all cases: method as in original PKIS2 published data
Series [1] addresses kinases (KINOMEscan panel) (Homo sapiens, UniProt O75116). As to conditions: kinase ROCK2; Published KINOMEscan; ref original PKIS2 published data; cited from earlier work.
Series [2] concerns the target kinases (KINOMEscan panel) (Homo sapiens, UniProt P04626). Conditions: kinase ERBB2; Published KINOMEscan; ref original PKIS2 published data; cited from earlier work.
In series [3] the target is kinases (KINOMEscan panel) (Homo sapiens, UniProt P16234). Conditions: PDGFRA; Published KINOMEscan; ref original PKIS2 published data; cited from earlier work.
Series [4] deals with kinases (KINOMEscan panel) (Homo sapiens, UniProt P23458). As to conditions: JAK1(JH1domain-catalytic); Published KINOMEscan; ref original PKIS2 published data; cited from earlier work.
The target of series [5] is kinases (KINOMEscan panel) (Homo sapiens, UniProt P24723). Conditions: kinase PRKCH; Published KINOMEscan; ref original PKIS2 published data; cited from earlier work.
In series [6] the target is kinases (KINOMEscan panel) (Homo sapiens, UniProt P43405). Conditions: SYK; Published KINOMEscan; ref original PKIS2 published data; cited from earlier work.
Series [7] deals with T1, kinases (KINOMEscan panel) (Homo sapiens, UniProt Q56UN5).
T1 sequence (Q56UN5 1-1328): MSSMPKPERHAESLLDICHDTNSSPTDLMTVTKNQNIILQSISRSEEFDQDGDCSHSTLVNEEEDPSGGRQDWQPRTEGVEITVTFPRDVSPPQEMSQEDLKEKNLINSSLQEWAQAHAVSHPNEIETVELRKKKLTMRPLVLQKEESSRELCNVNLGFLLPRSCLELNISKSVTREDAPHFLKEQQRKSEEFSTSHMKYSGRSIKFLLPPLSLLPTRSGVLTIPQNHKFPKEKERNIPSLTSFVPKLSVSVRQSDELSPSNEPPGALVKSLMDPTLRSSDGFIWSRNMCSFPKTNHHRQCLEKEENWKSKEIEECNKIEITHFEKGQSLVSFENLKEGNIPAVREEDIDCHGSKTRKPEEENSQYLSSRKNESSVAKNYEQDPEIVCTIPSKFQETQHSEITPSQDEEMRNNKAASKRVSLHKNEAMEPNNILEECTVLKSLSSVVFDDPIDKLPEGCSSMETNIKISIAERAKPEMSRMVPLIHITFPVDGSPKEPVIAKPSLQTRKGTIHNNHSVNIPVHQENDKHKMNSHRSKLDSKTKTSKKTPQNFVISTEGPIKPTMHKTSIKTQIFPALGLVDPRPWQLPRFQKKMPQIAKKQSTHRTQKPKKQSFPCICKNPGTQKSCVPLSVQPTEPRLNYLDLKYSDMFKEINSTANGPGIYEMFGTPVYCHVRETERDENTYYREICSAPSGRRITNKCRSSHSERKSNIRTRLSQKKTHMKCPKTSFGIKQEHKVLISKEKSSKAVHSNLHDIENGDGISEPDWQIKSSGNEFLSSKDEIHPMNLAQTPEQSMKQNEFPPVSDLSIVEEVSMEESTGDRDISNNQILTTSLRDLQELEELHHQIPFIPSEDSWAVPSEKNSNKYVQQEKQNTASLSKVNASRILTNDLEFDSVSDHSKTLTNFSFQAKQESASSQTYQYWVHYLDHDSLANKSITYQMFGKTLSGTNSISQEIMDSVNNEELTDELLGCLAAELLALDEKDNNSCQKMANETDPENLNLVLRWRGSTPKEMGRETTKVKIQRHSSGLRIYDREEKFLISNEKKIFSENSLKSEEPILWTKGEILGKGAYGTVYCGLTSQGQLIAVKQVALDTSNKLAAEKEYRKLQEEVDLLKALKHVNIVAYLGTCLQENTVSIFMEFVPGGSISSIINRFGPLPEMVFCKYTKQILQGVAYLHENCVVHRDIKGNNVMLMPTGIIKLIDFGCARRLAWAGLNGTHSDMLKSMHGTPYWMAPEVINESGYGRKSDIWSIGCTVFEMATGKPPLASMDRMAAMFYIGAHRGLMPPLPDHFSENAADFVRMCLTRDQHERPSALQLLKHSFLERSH
As to conditions: Published KINOMEscan; ref original PKIS2 published data; cited from earlier work.

In series [8] the target is kinases (KINOMEscan panel) (Homo sapiens, UniProt Q9BX84). Conditions: TRPM6; Published KINOMEscan; ref original PKIS2 published data; cited from earlier work.
Series [9] deals with T2, kinases (KINOMEscan panel) (Homo sapiens, UniProt Q9C098).
T2 sequence (Q9C098 1-648): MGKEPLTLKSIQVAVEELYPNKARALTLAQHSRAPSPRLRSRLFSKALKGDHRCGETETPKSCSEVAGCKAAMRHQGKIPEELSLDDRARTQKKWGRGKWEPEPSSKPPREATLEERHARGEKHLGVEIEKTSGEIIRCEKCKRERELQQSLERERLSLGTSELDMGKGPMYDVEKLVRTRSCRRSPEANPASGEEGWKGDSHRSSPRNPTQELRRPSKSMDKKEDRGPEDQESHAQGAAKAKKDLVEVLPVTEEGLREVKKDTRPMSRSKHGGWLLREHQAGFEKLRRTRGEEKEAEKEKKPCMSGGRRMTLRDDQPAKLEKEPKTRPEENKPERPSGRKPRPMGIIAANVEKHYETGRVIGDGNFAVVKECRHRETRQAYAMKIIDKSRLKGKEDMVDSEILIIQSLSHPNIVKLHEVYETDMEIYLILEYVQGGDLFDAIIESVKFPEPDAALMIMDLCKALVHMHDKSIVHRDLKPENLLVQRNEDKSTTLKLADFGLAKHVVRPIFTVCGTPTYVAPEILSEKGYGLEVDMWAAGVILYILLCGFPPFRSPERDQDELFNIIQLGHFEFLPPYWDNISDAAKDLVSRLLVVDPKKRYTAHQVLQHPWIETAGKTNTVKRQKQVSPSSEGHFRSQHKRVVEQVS
Conditions: kinase DCLK3; Published KINOMEscan; ref original PKIS2 published data; cited from earlier work.

Chain of kinases (KINOMEscan panel) (Homo sapiens, UniProt P04626) (P04626 23-1255): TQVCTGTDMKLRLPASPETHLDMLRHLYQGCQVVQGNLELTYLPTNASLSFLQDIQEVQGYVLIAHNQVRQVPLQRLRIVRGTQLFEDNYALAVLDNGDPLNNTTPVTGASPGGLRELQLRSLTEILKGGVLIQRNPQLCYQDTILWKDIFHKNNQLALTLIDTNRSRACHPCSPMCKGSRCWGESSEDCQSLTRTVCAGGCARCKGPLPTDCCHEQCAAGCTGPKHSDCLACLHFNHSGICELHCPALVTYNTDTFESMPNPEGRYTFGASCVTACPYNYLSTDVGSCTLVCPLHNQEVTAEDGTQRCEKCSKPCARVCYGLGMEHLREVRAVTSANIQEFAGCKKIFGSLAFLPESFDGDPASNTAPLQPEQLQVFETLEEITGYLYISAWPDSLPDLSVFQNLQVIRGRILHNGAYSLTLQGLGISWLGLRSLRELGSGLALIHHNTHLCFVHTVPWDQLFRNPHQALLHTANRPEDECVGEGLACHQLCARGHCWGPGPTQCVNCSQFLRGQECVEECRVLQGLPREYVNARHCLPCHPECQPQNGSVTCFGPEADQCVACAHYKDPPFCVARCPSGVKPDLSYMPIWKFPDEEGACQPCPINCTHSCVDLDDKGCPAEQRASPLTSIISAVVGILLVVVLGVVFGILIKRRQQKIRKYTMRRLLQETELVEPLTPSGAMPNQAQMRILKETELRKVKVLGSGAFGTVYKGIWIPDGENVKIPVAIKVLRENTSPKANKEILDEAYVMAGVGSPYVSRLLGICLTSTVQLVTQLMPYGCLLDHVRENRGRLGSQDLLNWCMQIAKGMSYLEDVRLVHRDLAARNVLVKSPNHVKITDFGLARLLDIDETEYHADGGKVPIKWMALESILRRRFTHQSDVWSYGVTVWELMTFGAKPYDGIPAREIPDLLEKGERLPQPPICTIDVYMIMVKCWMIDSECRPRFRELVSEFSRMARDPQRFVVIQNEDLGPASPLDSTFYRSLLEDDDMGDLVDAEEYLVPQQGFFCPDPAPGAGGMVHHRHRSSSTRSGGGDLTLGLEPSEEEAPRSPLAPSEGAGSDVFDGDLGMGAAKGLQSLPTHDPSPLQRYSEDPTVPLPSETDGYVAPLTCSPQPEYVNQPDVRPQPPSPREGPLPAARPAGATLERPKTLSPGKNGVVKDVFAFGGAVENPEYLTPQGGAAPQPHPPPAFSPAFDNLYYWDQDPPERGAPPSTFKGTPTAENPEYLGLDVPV
Chain of kinases (KINOMEscan panel) (Homo sapiens, UniProt O75116) (O75116 whole entry): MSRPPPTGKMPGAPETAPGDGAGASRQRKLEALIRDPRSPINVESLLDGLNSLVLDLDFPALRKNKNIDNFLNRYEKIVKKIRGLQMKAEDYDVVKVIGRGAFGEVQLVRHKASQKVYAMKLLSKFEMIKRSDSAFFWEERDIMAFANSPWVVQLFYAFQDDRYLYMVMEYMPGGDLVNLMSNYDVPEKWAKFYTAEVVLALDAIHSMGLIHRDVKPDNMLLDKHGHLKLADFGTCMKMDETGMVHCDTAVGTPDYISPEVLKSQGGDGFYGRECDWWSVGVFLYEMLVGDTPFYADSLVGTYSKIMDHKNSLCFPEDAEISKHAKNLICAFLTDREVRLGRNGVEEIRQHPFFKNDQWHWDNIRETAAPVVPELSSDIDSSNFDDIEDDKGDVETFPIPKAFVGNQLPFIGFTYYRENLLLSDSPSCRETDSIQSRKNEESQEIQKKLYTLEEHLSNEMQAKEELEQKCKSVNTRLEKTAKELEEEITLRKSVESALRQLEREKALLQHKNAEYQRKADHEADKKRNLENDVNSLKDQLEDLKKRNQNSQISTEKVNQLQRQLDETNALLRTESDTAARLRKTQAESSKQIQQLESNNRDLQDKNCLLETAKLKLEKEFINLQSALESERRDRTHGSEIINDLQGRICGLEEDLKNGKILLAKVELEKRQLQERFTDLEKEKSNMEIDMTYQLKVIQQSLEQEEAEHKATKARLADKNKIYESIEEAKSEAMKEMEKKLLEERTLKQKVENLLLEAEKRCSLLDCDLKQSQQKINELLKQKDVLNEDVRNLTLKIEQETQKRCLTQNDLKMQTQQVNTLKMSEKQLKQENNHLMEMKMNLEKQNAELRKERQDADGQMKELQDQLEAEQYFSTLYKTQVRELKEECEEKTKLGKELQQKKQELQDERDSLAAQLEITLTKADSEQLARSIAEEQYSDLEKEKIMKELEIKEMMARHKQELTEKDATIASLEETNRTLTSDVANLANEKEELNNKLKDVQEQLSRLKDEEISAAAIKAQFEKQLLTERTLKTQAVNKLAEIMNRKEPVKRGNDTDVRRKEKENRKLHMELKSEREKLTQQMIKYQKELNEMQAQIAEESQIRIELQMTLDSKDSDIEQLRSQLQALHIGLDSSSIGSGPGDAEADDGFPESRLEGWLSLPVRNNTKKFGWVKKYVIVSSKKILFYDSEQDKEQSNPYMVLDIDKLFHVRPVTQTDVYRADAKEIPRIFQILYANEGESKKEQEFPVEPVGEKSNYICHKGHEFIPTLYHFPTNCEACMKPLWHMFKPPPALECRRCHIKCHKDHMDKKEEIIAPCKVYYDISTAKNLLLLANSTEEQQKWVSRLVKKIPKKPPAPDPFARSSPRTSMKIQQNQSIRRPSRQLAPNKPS
Chain of kinases (KINOMEscan panel) (Homo sapiens, UniProt P16234) (P16234 24-1089): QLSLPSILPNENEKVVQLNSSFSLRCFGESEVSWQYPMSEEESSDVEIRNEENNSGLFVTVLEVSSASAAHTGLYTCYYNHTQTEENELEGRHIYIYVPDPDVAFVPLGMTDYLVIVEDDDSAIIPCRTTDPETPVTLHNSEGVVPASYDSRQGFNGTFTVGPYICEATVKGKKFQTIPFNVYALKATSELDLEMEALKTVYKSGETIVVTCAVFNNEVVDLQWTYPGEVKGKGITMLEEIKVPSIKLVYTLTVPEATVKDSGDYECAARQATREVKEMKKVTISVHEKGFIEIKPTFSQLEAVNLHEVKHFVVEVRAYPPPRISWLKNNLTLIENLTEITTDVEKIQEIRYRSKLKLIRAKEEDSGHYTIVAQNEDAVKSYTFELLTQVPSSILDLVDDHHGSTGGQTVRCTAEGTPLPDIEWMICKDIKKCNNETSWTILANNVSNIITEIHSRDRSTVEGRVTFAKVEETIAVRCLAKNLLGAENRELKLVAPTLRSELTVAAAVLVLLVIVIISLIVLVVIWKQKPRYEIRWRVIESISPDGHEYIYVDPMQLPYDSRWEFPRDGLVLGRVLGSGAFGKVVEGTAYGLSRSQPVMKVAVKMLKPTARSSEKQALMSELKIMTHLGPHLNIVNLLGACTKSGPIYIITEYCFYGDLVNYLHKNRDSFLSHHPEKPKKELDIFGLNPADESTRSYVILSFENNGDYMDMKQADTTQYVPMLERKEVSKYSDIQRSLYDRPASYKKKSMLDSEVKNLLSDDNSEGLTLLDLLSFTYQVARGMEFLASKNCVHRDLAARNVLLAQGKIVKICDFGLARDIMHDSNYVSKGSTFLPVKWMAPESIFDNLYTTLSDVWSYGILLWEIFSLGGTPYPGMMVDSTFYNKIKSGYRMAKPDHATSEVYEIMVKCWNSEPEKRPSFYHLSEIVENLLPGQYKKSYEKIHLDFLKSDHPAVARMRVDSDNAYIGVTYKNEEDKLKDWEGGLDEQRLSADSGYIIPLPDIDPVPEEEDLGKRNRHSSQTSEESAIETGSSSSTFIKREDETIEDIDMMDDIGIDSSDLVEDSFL
Chain of kinases (KINOMEscan panel) (Homo sapiens, UniProt P24723) (P24723 whole entry): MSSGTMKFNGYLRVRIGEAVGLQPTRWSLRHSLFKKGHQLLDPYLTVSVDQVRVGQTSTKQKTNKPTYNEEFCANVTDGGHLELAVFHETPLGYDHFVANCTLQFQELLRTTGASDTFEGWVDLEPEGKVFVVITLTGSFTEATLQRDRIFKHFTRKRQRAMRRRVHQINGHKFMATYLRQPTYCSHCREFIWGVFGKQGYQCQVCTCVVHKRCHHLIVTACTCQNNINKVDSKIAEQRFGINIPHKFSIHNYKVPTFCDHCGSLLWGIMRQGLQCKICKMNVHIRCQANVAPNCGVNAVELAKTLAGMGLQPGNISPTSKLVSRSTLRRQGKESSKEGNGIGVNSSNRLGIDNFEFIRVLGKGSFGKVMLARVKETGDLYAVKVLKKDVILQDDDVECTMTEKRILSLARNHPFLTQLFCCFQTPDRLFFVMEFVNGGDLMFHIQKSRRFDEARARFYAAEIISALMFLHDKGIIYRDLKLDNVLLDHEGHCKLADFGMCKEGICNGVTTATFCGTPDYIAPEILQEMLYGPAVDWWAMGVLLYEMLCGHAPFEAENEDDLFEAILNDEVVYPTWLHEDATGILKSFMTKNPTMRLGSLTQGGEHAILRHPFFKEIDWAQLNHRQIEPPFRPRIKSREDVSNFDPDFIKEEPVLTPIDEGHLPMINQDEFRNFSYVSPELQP

`Cc1cccc(-c2nc(Nc3ccncc3)c3ccccc3n2)n1` [NK215]: the “KINOMEscan ROCK2” value in series [1] is reported as 0. Also, the “KINOMEscan ERBB2” value in series [2] was 7. Besides, the “KINOMEscan PDGFRA” value in series [3] is listed as 0. Besides, the “KINOMEscan JAK1(JH1domain-catalytic)” value in [4] is reported as 0. In series [5], the “KINOMEscan PRKCH” value was 0. The “KINOMEscan SYK” value in [6] is on record as 14. Further, the “KINOMEscan MAP3K19” value in [7] was 0. The “KINOMEscan TRPM6” value in series [8] is 0. In addition, the “KINOMEscan DCLK3” value in series [9] is recorded as 21.
